Article PMC3472974, “The Bite of the Honeybee: 2-Heptanone Secreted from Honeybee Mandibles during a Bite Acts as a Local Anaesthetic in Insects and Mammals” (PLoS ONE, 2012)
Where two headings read alike, the source gives them in different places.

Experiments:
honeybees = assay: Recruitment of defensive honeybees at the colony entrance, BeeSCAN counters; assay type: in vivo, Apis mellifera; conditions: control 46.42
Protocol: We first tested the dominant hypothesis that honeybees secrete 2-H as an alarm pheromone that recruits other honeybees in the face of a potential threat. We monitored honeybee response to different doses of 2-H applied at colony entrances. In control colonies, which were not exposed to 2-H, an average of 46.42 bees left the colony per minute (n = 5, SEM = 0.43). There was no statistical difference, 10 minutes after application, between the mean number of bees recruited in control colonies and those recruited in colonies exposed to 0.1 µL 2-H (mean = 47.18, n = 5, SEM = 0.36, p = 1.000). In contrast, higher doses of 2-H acted as a repellent.
We conducted field experiments at the apiary, in which we used electronic monitoring devices (BeeSCAN v2.03) to test whether the presence of 2-H on the colony flight boards stimulated recruitment of defensive honeybees. The monitoring devices counted the number of honeybees exiting the beehive once per minute for 10 minutes for each of the five colonies per treatment. […] To apply 2-H, we followed the standard methodology described in previous experiments.

Varroa destructor = assay: Gravitational reflex of Varroa mites after topical application; assay type: in vivo
Protocol: We tested 2-H on a far smaller arthropod that parasitizes honeybees, the mite, Varroa destructor. When 0.025 µL of 2-H was applied topically to the sternum of mites (n = 10) fixed ventral side up, the gravitational reflex–the rhythmic expansion of the thorax and abdomen [15]–was distorted (Fig. 3d). When the concentration was increased to 0.061 µL, the gravitational reflex completely malfunctioned and the Varroa mites (n = 10) were totally paralysed within 30–40 s (Fig. 3e) with no recovery, even after 12 h of observation. We applied larger concentrations of 2-H to the Varroa mites topically because the mites’ small size made it impossible to inject 2-H into the haemolymph.

hNav1.6 channels = molecular target: T1, hNav1.6 channels (Homo sapiens, UniProt Q9UQD0); assay: Patch-clamp (PatchXpress 7000A) on transfected CHO cells, hNav1.6; assay type: cell-based; conditions: for IC50: CHO cells, n = 6, mean ± SEM, 2-H exposure limited to 3 min, read-out: hNav1.6 IC50 (converted); for times less active than lidocaine: hNav1.6
T1 construct: expressed in transfected cells; host or cells: CHO-K1 (ATCC CCL-61)
T1 sequence (Q9UQD0 whole entry): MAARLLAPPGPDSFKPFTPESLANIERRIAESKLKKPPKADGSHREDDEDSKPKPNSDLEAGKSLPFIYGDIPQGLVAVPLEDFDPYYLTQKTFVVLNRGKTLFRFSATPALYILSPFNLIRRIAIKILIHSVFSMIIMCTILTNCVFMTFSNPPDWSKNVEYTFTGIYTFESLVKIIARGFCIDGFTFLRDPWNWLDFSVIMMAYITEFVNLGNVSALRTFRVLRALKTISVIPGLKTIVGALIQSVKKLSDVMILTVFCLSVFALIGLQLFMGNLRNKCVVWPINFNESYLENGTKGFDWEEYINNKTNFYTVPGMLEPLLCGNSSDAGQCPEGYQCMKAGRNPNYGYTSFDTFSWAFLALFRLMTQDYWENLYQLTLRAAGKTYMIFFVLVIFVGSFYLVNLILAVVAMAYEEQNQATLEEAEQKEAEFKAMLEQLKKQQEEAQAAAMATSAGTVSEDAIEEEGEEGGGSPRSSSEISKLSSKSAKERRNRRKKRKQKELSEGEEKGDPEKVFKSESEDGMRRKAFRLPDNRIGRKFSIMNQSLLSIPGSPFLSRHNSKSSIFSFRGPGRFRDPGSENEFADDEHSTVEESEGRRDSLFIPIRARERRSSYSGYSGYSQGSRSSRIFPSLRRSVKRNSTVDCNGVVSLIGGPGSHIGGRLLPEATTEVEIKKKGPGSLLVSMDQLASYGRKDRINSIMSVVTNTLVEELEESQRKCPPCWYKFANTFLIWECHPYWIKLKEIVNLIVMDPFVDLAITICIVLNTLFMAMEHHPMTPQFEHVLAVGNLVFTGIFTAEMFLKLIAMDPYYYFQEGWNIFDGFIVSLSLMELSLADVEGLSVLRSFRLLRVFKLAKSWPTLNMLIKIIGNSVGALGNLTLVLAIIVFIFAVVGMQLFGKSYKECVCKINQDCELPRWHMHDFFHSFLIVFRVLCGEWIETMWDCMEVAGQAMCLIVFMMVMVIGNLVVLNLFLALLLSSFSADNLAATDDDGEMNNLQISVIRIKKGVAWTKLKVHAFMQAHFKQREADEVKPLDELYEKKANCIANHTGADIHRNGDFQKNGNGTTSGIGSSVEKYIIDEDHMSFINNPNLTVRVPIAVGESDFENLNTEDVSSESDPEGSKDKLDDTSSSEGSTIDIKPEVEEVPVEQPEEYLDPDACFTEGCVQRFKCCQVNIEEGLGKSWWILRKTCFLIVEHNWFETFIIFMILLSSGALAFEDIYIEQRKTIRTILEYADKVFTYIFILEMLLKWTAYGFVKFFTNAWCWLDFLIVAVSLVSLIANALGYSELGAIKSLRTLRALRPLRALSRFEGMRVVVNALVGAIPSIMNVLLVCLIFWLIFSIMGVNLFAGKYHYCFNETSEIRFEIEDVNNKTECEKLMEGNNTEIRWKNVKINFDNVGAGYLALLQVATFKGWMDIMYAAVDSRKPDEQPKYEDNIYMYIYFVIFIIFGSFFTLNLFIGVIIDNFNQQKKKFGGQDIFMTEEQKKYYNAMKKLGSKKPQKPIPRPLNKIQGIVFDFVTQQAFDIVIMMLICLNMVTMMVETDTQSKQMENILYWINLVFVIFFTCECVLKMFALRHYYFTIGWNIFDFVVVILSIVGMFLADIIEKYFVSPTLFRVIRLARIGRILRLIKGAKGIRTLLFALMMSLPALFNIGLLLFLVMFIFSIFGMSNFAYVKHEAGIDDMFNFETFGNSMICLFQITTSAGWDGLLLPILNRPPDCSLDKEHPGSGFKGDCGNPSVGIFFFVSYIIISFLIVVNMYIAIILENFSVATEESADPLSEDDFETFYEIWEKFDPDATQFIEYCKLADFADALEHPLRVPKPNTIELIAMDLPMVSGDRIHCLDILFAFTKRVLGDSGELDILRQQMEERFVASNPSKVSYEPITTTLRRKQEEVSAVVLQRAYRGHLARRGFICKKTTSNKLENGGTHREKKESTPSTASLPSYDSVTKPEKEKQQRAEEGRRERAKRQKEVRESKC
From the text: (§1) To test whether 2-H can act by blocking VGNaCs, the PatchXpress 7000A was used. Mammalian CHO (Chinese hamster ovary) transfected with ion hNav1.2 and hNav1.6 channels cDNAs (SCN2A and SCN8A genes) were exposed to 2-H under both tonic and phasic conditions. The mammalian CHO-K1 epithelial embryonic cell line (ATCC number CCL-61) from Cricetulus griseus was obtained from ATCC, Manassas, VA. CHO-K1 cells were transfected with either hNav1.2 or hNav1.6 channel cDNA (SCN2A and SCN8A genes, respectively) and were exposed to 2-H under both tonic and phasic conditions.
(§2) The effects of 2-H were evaluated on hNav1.2 at 0.73, 1.46, 2.19, and 2.92 mg/mL and on hNav1.6 channels at 0.1, 0.36, 0.73, and 1.46 mg/mL, with each concentration tested in at least six cells (n = 6). Cells were exposed to each concentration of 2-H and measurements of the inward current were obtained within the first 3 min of exposure. […] Since the PatchXpress has open cell chambers where the testing occurs, there is no way to hermetically seal the experiment.
(§3) Based on this analysis, we estimated the IC50.

hNav1.2 channels = molecular target: T2, hNav1.2 channels (Homo sapiens, UniProt Q99250); assay: Patch-clamp (PatchXpress 7000A) on transfected CHO cells, hNav1.2; assay type: cell-based; conditions: for IC50: CHO cells, n = 6, mean ± SEM, 2-H exposure limited to 3 min; for times less active than lidocaine: hNav1.2
T2 construct: expressed in transfected cells; host or cells: CHO-K1 (ATCC CCL-61)
T2 sequence (Q99250 whole entry): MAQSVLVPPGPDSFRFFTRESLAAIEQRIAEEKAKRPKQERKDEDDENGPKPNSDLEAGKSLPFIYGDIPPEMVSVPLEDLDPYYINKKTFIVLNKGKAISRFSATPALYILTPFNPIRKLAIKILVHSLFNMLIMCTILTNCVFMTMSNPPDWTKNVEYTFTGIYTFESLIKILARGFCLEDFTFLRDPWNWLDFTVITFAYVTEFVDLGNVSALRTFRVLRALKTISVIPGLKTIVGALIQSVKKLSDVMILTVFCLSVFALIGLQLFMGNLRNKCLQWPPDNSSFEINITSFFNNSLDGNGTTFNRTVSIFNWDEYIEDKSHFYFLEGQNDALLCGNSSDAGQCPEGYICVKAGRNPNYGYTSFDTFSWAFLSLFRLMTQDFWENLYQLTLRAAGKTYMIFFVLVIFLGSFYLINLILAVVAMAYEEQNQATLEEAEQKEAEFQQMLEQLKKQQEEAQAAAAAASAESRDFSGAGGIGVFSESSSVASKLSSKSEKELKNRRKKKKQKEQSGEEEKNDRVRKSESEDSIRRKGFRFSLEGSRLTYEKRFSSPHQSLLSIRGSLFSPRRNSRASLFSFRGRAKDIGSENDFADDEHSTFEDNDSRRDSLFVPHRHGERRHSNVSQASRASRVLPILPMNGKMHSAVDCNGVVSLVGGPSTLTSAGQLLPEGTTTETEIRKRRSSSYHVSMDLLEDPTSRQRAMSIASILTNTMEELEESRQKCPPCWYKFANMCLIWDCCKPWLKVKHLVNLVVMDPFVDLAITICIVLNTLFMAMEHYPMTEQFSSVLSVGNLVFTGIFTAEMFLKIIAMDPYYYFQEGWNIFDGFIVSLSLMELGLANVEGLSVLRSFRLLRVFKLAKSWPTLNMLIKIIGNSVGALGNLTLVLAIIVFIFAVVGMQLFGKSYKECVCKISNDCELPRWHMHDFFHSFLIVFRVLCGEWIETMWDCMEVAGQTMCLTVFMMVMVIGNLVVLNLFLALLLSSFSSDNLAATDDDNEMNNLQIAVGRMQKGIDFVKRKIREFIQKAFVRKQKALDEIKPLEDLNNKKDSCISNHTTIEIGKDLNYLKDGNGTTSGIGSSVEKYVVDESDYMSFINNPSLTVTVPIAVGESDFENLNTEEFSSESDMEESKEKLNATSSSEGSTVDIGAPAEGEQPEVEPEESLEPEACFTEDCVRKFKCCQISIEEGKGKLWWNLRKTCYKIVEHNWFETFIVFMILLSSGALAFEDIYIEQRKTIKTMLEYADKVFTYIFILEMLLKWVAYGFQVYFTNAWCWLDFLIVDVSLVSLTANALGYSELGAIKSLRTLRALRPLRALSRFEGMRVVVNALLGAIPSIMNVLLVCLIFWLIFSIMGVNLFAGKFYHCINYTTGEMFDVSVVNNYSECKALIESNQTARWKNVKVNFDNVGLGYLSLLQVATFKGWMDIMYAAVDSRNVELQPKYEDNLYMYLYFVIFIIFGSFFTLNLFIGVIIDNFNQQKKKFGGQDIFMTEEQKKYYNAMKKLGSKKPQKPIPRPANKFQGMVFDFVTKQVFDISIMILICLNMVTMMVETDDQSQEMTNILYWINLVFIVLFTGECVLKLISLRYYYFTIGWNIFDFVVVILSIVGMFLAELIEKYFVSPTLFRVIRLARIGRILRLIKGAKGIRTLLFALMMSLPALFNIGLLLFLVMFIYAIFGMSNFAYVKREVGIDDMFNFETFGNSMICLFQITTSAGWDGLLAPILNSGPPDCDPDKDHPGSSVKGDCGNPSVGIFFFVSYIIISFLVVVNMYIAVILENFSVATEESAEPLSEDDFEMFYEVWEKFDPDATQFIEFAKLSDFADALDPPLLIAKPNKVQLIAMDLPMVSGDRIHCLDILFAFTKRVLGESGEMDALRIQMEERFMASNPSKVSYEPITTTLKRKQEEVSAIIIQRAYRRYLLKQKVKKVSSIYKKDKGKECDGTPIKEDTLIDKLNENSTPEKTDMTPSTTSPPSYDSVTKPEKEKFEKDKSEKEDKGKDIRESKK
From the text: as §1, §2, §3

CCCCCC(C)=O [2-H, 2-heptanone]
mean number of bees leaving the colony per minute (honeybees; 0.1 µL 2-H at colony entrance, 10 minutes after application, p = 1.000): 47.18 per minute | mean number of honeybees exiting the hive per minute (honeybees; 10 µL 2-H at colony entrance, p = 0.003): 42.54 per minute | mean number of honeybees exiting the hive per minute (honeybees; 1000 µL 2-H at colony entrance, p = 0.002): 40.88 per minute | effect on gravitational reflex (Varroa destructor; 0.025 µL applied topically to the sternum, n = 10): distorted | recovery from paralysis (Varroa destructor; 0.061 µL applied topically, 12 h of observation): no recovery | IC50 (hNav1.6 channels; Phasic Experiment): 4.64 mM | IC50 (hNav1.6 channels; Tonic Experiment): 7.18 mM | times less active than lidocaine (hNav1.6 channels; phasic experiments): 7.57 times | times less active than lidocaine (hNav1.6 channels; tonic experiments): 2.82 times | IC50 (hNav1.2 channels; Phasic Experiment): 6.57 mM | IC50 (hNav1.2 channels; Tonic Experiment): 9.02 mM | times less active than lidocaine (hNav1.2 channels; phasic experiments): 7.50 times | times less active than lidocaine (hNav1.2 channels; tonic experiments): 3.97 times
